How the values were obtained:
Assay type in all cases: cell-based, mouse
[1] = tested on: IFN-γ; assay: IFN-γ in culture supernatant of activated T cells, ELISA; details: 30 h after activation
Description: (§1) To analyze the cell cycle of T cells activated by immobilized anti-CD3/anti-CD28 or to analyze the cytokine concentration in the culture supernatant, 3×10^6 G0 T cells and each concentration of L-AHG together with 2 mL of RPMI 1640 complete medium were added to each well of a 35-mm plate coated with anti-CD3 (2.0 μg/mL) and anti-CD28 (2.0 μg/mL), and activation of the cells was initiated by culture. At 30 hours after the activation, the culture was stopped and the cells and the culture supernatant were recovered by centrifugation.
(§2) After recovering the culture supernatant of T cells, the concentrations of IFN-γ, IL-2, IL-4 and IL-13 therein were analyzed using an ELISA kit (Mouse Uncoated Elisa Kit, Invitrogen) according to the manufacturer's instructions. […] The reaction was terminated by adding 100 μl of a reaction stop solution to each well, and the absorbances at wavelengths of 450 nm and 570 nm were measured with a Varioskan Lux Multimode Microplate Reader (Thermo Fisher Scientific). At this time, the value obtained by subtracting the absorbance measured at a wavelength of 570 nm from the absorbance measured at a wavelength of 450 nm was compared with a standard curve to determine the concentrations of cytokines present in the culture supernatant. […]

[2] = tested on: CD4 T cells; assay: First cell cycle progression of activated resting CD4 T cells, nocodazole arrest, DAPI flow cytometry
Description: (§3) Isolation of resting (G0) T lymphocytes from spleens from 4-5-month-old C57BL/6J male mice was performed by a negative selection method from splenocytes using a T cell purification column kit (R&D Systems, Minneapolis, Minn., USA). At this time, the activation of G0 T cells was performed using a modification of the method of Kim et al., wherein pretreatment with rabbit anti-hamster IgG antibody (20 μg/mL) was performed so that the surface of the culture plastic container was smoothly coated with anti-CD3 (2.0 μg/mL) and anti-CD28 (2.0 μg/mL).
as §1
(§4) Under the same culture conditions, in order for the first cell cycle progression initiated by the activation of G0 T cells to be arrested in prometaphase by nocodazole treatment, T lymphocytes were activated for 20 hours, and then nocodazole was added thereto at a concentration of 0.2 μg/mL, followed by followed by further culturing for an additional 10 hours. After completion of the culturing, the culture was centrifuged to recover the cells and the culture supernatant.
(§5) Resting (G0) T cells isolated from mouse splenocytes using a T cell purification column kit (R & D) and T cells obtained by activating G0 T cells with immobilized anti-CD3/anti-CD28 for a given period of time were subjected to anti-CD3, anti-CD4, anti-CD8, and DAPI staining.
(§6) About 5×10^5 cells were suspended in 100 μL of 1×PBS/1% FBS solution, and then 0.5 μg of anti-CD3, 0.5 μg of anti-CD4, and 0.5 μg of anti-CD8 were added thereto and allowed to react at 4° C. for 15 minutes, followed by washing twice with 1×PBS/1% FBS solution. Subsequently, the cells were fixed with 1% paraformaldehyde solution at 4° C. for 15 minutes, and the fixed cells were washed twice with 1×PBS solution and then stained with 10 μM DAPI for 15 minutes. The stained cells were analyzed with an Attune NxT flow cytometer (Thermo Fisher Scientific, Waltham, MA, USA) to determine the proportions of CD3 T cells, CD4 T cells, and CD8 T cells and the cell cycle distribution based on the increase in blue fluorescence depending on the amount of DAPI bound to intracellular DNA.
To this end, resting T cells were stimulated and activated with immobilized anti-CD3/anti-CD28, and when these cells reached the time point at which S phase started following G0 exit and G1 entry and progression, that is, when 20 hours have elapsed after the activation, the microtubule depolymerization agent nocodazole (a cell cycle-arresting agent that arrests cell cycle progression of eukaryotic cells at the prometaphase of M phase) was added to the cells, followed by further culturing for 10 hours. Through this unique experimental method, the first cell cycle initiated following the activation of resting T cells was allowed to progress through the G1, S, and G2 phases, and then arrest in the prometaphase of M phase due to microtubule damage caused by the effect of nocodazole. Then, these cells were recovered, treated and stained with fluorescently labeled anti-CD4 antibody, fluorescently labeled anti-CD8 antibody, and the DNA fluorescent staining reagent DAPI, and analyzed with a flow cytometer. As a result, the present inventors investigated how the aspect of the first cell cycle progression (G1, S, and G2/M phases), which is initiated following the activation of resting CD4 T cells and resting CD8 T cells, is affected by L-AHG.

[3] = tested on: IL-2; assay: IL-2 in culture supernatant of activated T cells, ELISA; details: 25, 50, and 100 μg/mL; 30 h after activation
Description: as §1, §2

[4] = tested on: CD8 T cells; assay: First cell cycle progression of activated resting CD8 T cells, nocodazole arrest, DAPI flow cytometry
Description: as §3, §1, §4, §5, §6
To this end, resting T cells were stimulated and activated with immobilized anti-CD3/anti-CD28, and when these cells reached the time point at which S phase started following G0 exit and G1 entry and progression, that is, when 20 hours have elapsed after the activation, the microtubule depolymerization agent nocodazole (a cell cycle-arresting agent that arrests cell cycle progression of eukaryotic cells at the prometaphase of M phase) was added to the cells, followed by further culturing for 10 hours. […] Then, these cells were recovered, treated and stained with fluorescently labeled anti-CD4 antibody, fluorescently labeled anti-CD8 antibody, and the DNA fluorescent staining reagent DAPI, and analyzed with a flow cytometer. […]

[5] = tested on: IL-4; assay: IL-4 in culture supernatant of activated T cells, ELISA; details: 30 h after activation
Description: as §1, §2

[6] = tested on: T cells activated with immobilized anti-CD3/anti-CD28; assay: [3H]-thymidine incorporation (proliferation) of G0 T cells activated with immobilized anti-CD3/anti-CD28; details: for effect on [3H]thymidine incorporation of activated T cells: 25 to 400 μg/mL
Description: as §3
To evaluate the proliferation of T cells activated by immobilized anti-CD3/anti-CD28, 1×10^5 G0 T cells and each concentration of L-AHG together with 200 μL of RPMI 1640 complete medium were added to each well of a 96-well plate coated with anti-CD3 (2.0 μg/mL) and anti-CD28 (2.0 μg/mL), and activation of the cells was initiated by culture. At 29 hours after the activation, 0.25 μCi of [^3H]-thymidine was added to each well, and the amount of [^3H]-thymidine incorporated into the DNA of proliferating T cells was quantified by a liquid scintillation counter while the cells were further cultured for 12 hours.
First, using a 96-well plate, resting T cells (1×10^5 G0 T cells/well) were stimulated and activated with immobilized anti-CD3/anti-CD28 in the presence of various concentrations (0, 12.5, 25, 50, 100, 200, and 400 μg/mL) of L-AHG, NA2, NA4, or NA6. At 29 hours after the activation, 0.25 μCi of [^3H]thymidine was added to each well, followed by further culturing for an additional 12 hours. The amount of [^3H]thymidine incorporated into DNA following the T cell proliferation that occurred during this additional culturing time was quantified with a liquid scintillation counter, thereby determining the degree of T cell proliferation that occurred in each well.

[7] = tested on: IL-13; assay: IL-13 in culture supernatant of activated T cells, ELISA; details: 25, 50, and 100 μg/mL; 30 h after activation
Description: as §1, §2

[8] = 100 μg/mL, 30 h after activation, nocodazole from 20 h

O=C[C@@H](O)[C@@H]1OC[C@H](O)[C@H]1O [L-AHG, 3,6-anhydro-L-galactose]
IFN-γ concentration in culture supernatant ([1]; 25 μg/mL): hardly affected
IFN-γ concentration in culture supernatant ([1]; 25, 50, and 100 μg/mL): significantly decreased
percentage of G1-phase CD4 T cells [2, 8]: 35.4%
percentage of G2/M phase CD4 T cells [2, 8]: 8.8%
percentage of S-phase CD4 T cells [2, 8]: 54.6%
percentage of CD4 T cells remaining in the G1+S phase without entering G2/M ([2]; 100 μg/ml, 30 h after activation, nocodazole from 20 h): about 90.0%
apoptotic cell death (proportion of apoptotic sub-G1 cells) in CD4 T cells ([2]; 25-100 μg/mL): not induced
percentage of CD4 T cells remaining in G1 and S phases without entering G2/M ([2]; 25 to 100 μg/ml, nocodazole from 20 h): increased in a manner dependent on the concentration
IL-2 concentration in culture supernatant [3]: significantly decreased
change in the percentage of G1-phase CD8 T cells [4, 8]: negligible
percentage of G2/M CD8 T cells [4, 8]: 41.8%
percentage of S-phase CD8 T cells [4, 8]: 46.6%
apoptotic cell death (proportion of apoptotic sub-G1 cells) in CD8 T cells ([4]; 25-100 μg/mL): not induced
cell cycle progression after activation of resting CD8 T cells ([4]; 25 to 50 μg/mL, nocodazole from 20 h): hardly affected
IL-4 concentration relative to untreated control group ([5]; 25 μg/mL): 38.5%
IL-4 concentration in culture supernatant ([5]; 25, 50, and 100 μg/mL): significantly decreased
effect on the proliferation of activated T cells ([3H]thymidine incorporation) ([6]; 12.5 μg/ml, [3H]thymidine added 29 h after activation, 12 h further culture): no significant effect
[3H]thymidine incorporation relative to untreated control group ([6]; 100 μg/mL): about 22%
effect on [3H]thymidine incorporation of activated T cells [6]: inhibited [^3H]thymidine incorporation in a concentration-dependent manner
[3H]thymidine incorporation ([6]; 200 to 400 μg/mL): significantly decreased to an unmeasurable level
IL-13 concentration in culture supernatant [7]: significantly decreased

OC[C@H]1OC(O)[C@H](O)[C@@H](O[C@@H]2O[C@H]3CO[C@@H]([C@@H]2O)[C@@H]3O)[C@H]1O (stereo partly drawn) [NA2, neoagarobiose, reference compound]
effect on [3H]thymidine incorporation of activated T cells [6]: no significant effect

OC[C@H]1O[C@@H](O)[C@H](O)[C@@H](O[C@@H]2O[C@H]3CO[C@@H]([C@@H]2O)[C@@H]3O[C@@H]2O[C@H](CO)[C@H](O)[C@H](O[C@@H]3O[C@H]4CO[C@@H]([C@@H]3O)[C@@H]4O)[C@H]2O)[C@H]1O [NA4, neoagarotetraose, reference compound]
effect on [3H]thymidine incorporation of activated T cells [6]: no significant effect

OC[C@H]1O[C@@H](O)[C@H](O)[C@@H](O[C@@H]2O[C@H]3CO[C@@H]([C@@H]2O)[C@@H]3O[C@@H]2O[C@H](CO)[C@H](O)[C@H](O[C@@H]3O[C@H]4CO[C@@H]([C@@H]3O)[C@@H]4O[C@@H]3O[C@H](CO)[C@H](O)[C@H](O[C@@H]4O[C@H]5CO[C@@H]([C@@H]4O)[C@@H]5O)[C@H]3O)[C@H]2O)[C@H]1O [NA6, neoagarohexaose, reference compound]
effect on [3H]thymidine incorporation of activated T cells [6]: no significant effect

From patent US20250161337A1, “IMMUNOSUPPRESSIVE COMPOSITION CONTAINING L-AHG” (Kyungpook National University Industry-Academic Cooperation …, priority 2022, published 2025)
